Measurements taken from patent US4510149A, “N-Imidazolyl derivatives containing naphthalene or indene nucleus” (Farmitalia Carlo Erba S.p.A., priority 1982, dated 1985).
Entries after “also recorded” stand apart in the source; their conditions may differ.

Legend:
[1] = system: male rats fed standard diet; assay: Experiment No. 2: serum lipids in rats fed standard Altromin diet; type: in vivo, rat (Icem: CER (SPF Caw)); details: 4 days
Protocol: (§1) The introduction of this new substituent in the new bicyclic compounds has therefore unexpectedly strenghtened these activities. The activity of this particular group of compounds of this invention and of the compounds of the above mentioned U.S. Patent and U.K. published Patent Application was evaluated on groups of Icem: CER (SPF Caw) male rats either fed for six days with hypercholesterolaemic diet according to C. E. Day [Schurr P. E., Schultz H. R., Day C. E. (Eds) Atherosclerosis and drug discovery--Plenum Pub. Corp., 217 (1976)] (Experiment No. 1) or fed standard diet [Altromin] (Experiment No. 2). "Altromin" is a trade mark.
(§2) The compounds were suspended in "Methocel" (methyl cellulose, a 0.5% suspension in water) and administered by stomach tube for 4 days.
(§3) Groups of animals were treated with the suspending agent only (control groups).
(§4) The total serum cholesterol was determined with the method of Trinder P. J. [J.Clin.Pathol., 22, 246 (1969)].
The serum triglycerides were determined with the method of Mendex J. [J. Clin. Chem., 21, 768, (1975)].
W.--J. Amer. Stat. Ass., 50, 1096 (1955)].

[2] = system: collagen-induced platelet aggregation; assay: in vitro inhibition of collagen-induced platelet aggregation in platelet rich plasma; type: cell-based, guinea pig; details: for inhibition at 12.5 µg/mL: in vitro concentration 12.50 mcg/ml
Protocol: (§5) The platelet antiaggregatory activity of the compounds of the invention was evaluated in vitro and in vivo, for example, according to the modified methods of Born [Born G. V. R., Nature 194, 927 (1962)] and Silver [Silver M. J., Science 183, 1085 (1974)].
(§6) The compounds of this invention were found in vitro to have inhibitory activity on platelet aggregation induced by collagen or ADP (adenosine-5'-disphosphate) in platelet rich plasma of guinea pig [Dunkin Hantley Iva: PDH (SPF) Ivanovas GmBH, Germany].

[3] = system: thromboxane A2 (TXA2) synthetase; details: literature / prior filings; cited from earlier work
[4] = system: TxA2 synthetase; assay: serum TxB2 concentration in rats after single oral dose (activity on TxA2 synthetase in vivo); design: species or system rat; details: 2 hours
Protocol: (§7) The activity on TxA2 and PGI2 synthetase has been evaluated in vivo. For example, rats were treated with a single oral dose of compound and killed 2 hours later. TxB2 and 6-keto-PGF1α concentrations, the stable metabolites of TxA2 and PGI2 respectively, were determined on serum and plasma respectively.

[5] = system: male SHR rats; assay: development of hypertension in SHR rats, mean systemic pressure after seven weeks oral treatment; type: in vivo, rat (SHR)
Protocol: For example, one of the compound of this invention, i.e. compound FCE 22178, was given orally to nine male SHR rats for seven weeks at the dosage of 9 mg/kg.
The mean systemic pressure was monitored on an eight channels Beckman polygraph via a Statham pressure transducer, connected to a PE 60 catheter, inserted, 24 hours before monitored, into the left carotid artery.

[6] = system: arachidonic acid (1.4 mg/kg) induced mortality in rabbits; assay: arachidonic acid induced mortality in rabbits; type: in vivo, rabbit (New Zealand White)
Protocol: as §5
The compound FCE 22178 was also suspended in Methocel® and administered orally by gavage to rabbits (New Zealand White) at 2 mg/kg one hour before the injection of 1.4 mg/kg of arachidonic acid.

[7] = system: PGI2 synthetase; assay: plasma 6-keto-PGF1α concentration in rats after single oral dose (activity on PGI2 synthetase in vivo); design: species or system rat; details: 2 hours
Protocol: as §7

[8] = system: male rats fed hypercholesterolaemic diet; assay: Experiment No. 1: serum lipids in rats fed hypercholesterolaemic diet; type: in vivo, rat (Icem: CER (SPF Caw)); details: 4 days
Protocol: as §1, §2, §3, §4
The total serum HDL cholesterol was determined according to Demacker P. N. M. [Clin. Chem., 23, 1238, (1977)].
Statistical analysis in experiment No. 1 was performed by the Student's t test for independent samples or by the Cochran's test when the variances were not homogeneous at the F ratio test [Bliss C. I.--Statistics in Biology, Vol. 1, page 213--Mc Graw Hill Book Company, New York, 1967; Cochran W. G., Cox G. M.--Experimental designs--J. Wiley & Sons Inc., New York, II Ed. (1968) page 100].

[9] = orientative acute toxicity, single oral administration, mice; details: in vivo, mouse, same procedure
Protocol: The toxicity of the compounds of the invention is negligible, therefore they can be safely used in therapy. Nine hours food deprived mice and rats were treated orally with single administration of increasing doses, then housed and normally fed. The orientative acute toxicity (LD50) was assessed on the seventh day after the treatment and resulted higher than 3000 mg/kg.

[10] = system: ADP-induced platelet aggregation; assay: in vitro inhibition of ADP-induced platelet aggregation in platelet rich plasma; type: cell-based; details: guinea pig platelet rich plasma
Protocol: as §5, §6

Structure (SMILES): COc1ccc2c(c1)C(=O)C(n1ccnc1)CC2 (stereo not shown) [FCE 21848, 2-(1-imidazolyl)-3,4-dihydro-7-methoxy-1(2H)-naphthalenone, reference compound]
- Serum triglycerides, % variation vs. controls ([1]; 50.00 mg/kg/os): inactive
- Total serum cholesterol, % variation vs. controls ([1]; 50.00 mg/kg/os): inactive
- inhibition at 12.5 µg/mL ([2]; Cavia porcellus, Platelet): 0%

Structure (SMILES): c1c[nH]cn1 [imidazole]
- inhibition of TxA2 synthetase [3]: able to inhibit; also recorded: only a very weak TXA2 inhibiting effect

Structure (SMILES): O=C(O)c1ccc2c(c1)C=C(n1ccnc1)CC2 [FCE 22178, 1,2-dihydro-3-(1-imidazolyl)-6-carboxy-naphthalene]
- reduction of serum TxB2 concentration ([4]; 100 mg/kg): 90%
- reduction of serum TxB2 concentration ([4]; dosed up to 9 mg/kg): up to 70%
- development of hypertension ([5]; 9 mg/kg orally for seven weeks): decreased the development of hypertension
- Mean systemic pressure, Treated ([5]; 9 mg/kg orally, 7 weeks, controls 177 ± 5.06): 154.8 ± 14.1 mm Hg ± E.S.
- effect on arachidonic acid induced mortality ([6]; 2 mg/kg orally): greatly decreases
- Mortality ([6]; 2 mg/kg/os, one hour before arachidonic acid 1.4 mg/kg, Methocel control 9/9): 3/9
- change of plasma 6-keto-PGF1α concentration ([7]; 100 mg/kg): doubled
- increase of plasma 6-keto-PGF1α concentration ([7]; dosed up to 9 mg/kg): up to 30%

Structure (SMILES): O=C1c2cc(Cl)ccc2OCC1n1ccnc1 (stereo not shown) [FCE 20204, 3-(1-imidazolyl)-2,3-dihydro-6-chloro-4H-1-benzopyran-4-one, reference compound]
- Serum HDL cholesterol, % variation vs. controls ([8]; 25 mg/kg/os): +49 % variation vs. controls
- Total serum cholesterol, % variation vs. controls ([8]; 25 mg/kg/os): +7 % variation vs. controls
- inhibition at 12.5 µg/mL ([2]; Cavia porcellus, Platelet): 0%

Structure (SMILES): C1=C(Cn2ccnc2)CCc2ccccc21 [1,2-dihydro-3-(1-imidazolylmethyl)-naphthalene]
- LD50 at 168 h [9]: < 200 mg/kg

Structure (SMILES): COc1ccc2c(c1)CCC(Cn1ccnc1)=C2 [1,2-dihydro-3-(1-imidazolylmethyl)-7-methoxy-naphthalene]
- LD50 at 168 h [9]: < 200 mg/kg

Structure (SMILES): CC(C)(Oc1ccc2c(c1)C=C(n1ccnc1)CC2)C(=O)O [FCE 22473, 1,2-dihydro-3-(1-imidazolyl)-6-(2-carboxy-isopropoxy)-naphthalene]
- Serum triglycerides, % variation vs. controls ([1]; 16.67 mg/kg/os): -57 % variation vs. controls
- Total serum cholesterol, % variation vs. controls ([1]; 16.67 mg/kg/os): -32 % variation vs. controls
- Serum HDL cholesterol, % variation vs. controls ([8]; 27 mg/kg/os): +77 % variation vs. controls
- Total serum cholesterol, % variation vs. controls ([8]; 27 mg/kg/os): -73 % variation vs. controls

Structure (SMILES): COc1ccc2c(c1)C=C(n1ccnc1)CC2 [FCE 22466, 1,2-dihydro-3-(1-imidazolyl)-6-methoxy-naphthalene]
- activity on ADP-induced platelet aggregation [10]: active
- inhibition of collagen-induced platelet aggregation ([2]; 25 mcg/ml): totally inhibits collagen-induced platelet aggregation in three out of four samples
- inhibition at 12.33 µg/mL ([2]; Cavia porcellus, Platelet, in vitro concentration 12.33 mcg/ml): 50%
- activity on collagen-induced platelet aggregation ([2]; in vitro, guinea pig platelet rich plasma): active
